Assay results from patent US6441027B1, “Method of regulating the female reproductive system through angiogenesis inhibitors” (Children's Medical Center Corporation, priority 1996, dated 2002).
“Also recorded” adds a separate entry of the source. Where two headings read alike, the source gives them in different places.

Key:
Assay type in all cases: in vivo, mouse
inseminated C57BL/6 mice = tested on: inseminated C57BL/6 mice
Source text: C57BL/6 male and female mice greater than seven weeks old were obtained from Takonic (Germantown, N.Y.). The mice were acclimated for at least five days prior to mating and housed in a twelve hour on and twelve hour off light schedule. The mice were mated in the evenings and vaginal plugs were checked for the next morning. Mating in mice is normally detected by the occurrence of vaginal plugs, which are formed by a mixture of the secretions of the vesicular and coagulating glands of the male and usually fill the vagina from cervix to vulva. The day of plugging was labeled Embryonic day 0 (E0). All animal studies were conducted according to the protocols approved by the Animal Ethics Committee of Children's Hospital. Plugged female mice were randomized and received either AGM-1470 30 mg/kg s.c. or saline on E1, 7, or 14. The dependence of female reproductive system on angiogenesis was examined by treating sexually mature inseminated and cycling mice with selective angiogenesis inhibitor AGM-1470.
Mice were sacrificed on either E6, 9, 13 or 18 (one day prior to term gestation). Fetal viability was assessed and statistical analysis was performed with a Fisher's Exact Test.

[1] = tested on: embryo and yolk sac blood vessels; test: Whole mount anti-CD31/PECAM staining of embryo and yolk sac on E9; details: 30 mg/kg on E7, studied E9
Description: Mice were treated with 30 mg/kg AGM-1470 following the same protocol in Example 2. The control and AGM-1470 treated embryos were studied on E9 by whole mount immunohistochemistry for CD-31/PECAM to stain blood vessels. The fetus and the yolk sack in the mice given AGM-1470 on E1 were excluded due to necrosis by E9. […] Loss of vascular development in the embryo could be due to either a direct effect of AGM-1470 on the embryonic vasculature or to a secondary effect caused by failure of normal placental and yolk sac development.
The whole-mount immunohistochemistry with monoclonal antibody to mouse PECAM (CD31) was performed essentially as described by Schlaeger^29 Embryos were dissected from the uterus and fixed in 4% paraformaldehyde, PBS at 4° Celsius overnight. The fixed embryos were subsequently rinsed in PBS at room temperature and dehydrated in a methanol series. The dehydrated embryos were bleached in 5% hydrogen peroxide in methanol for 4 to 5 hours at room temperature and then rinsed twice in methanol. Embryos were stored at −20° Celsius until used. The bleached embryos were rehydrated and blocked with PBSMT (3% instant skim milk, 0.1% Triton X-100, PBS) for one hour twice at room temperature. The embryos were then incubated with a 1:10 diluted hybridoma supernatant in PBSMT at 4° Celsius overnight. On the next day, the embryos were washed with PBSMT at 4° Celsius five times (1 hour each) and then incubated with a biotinylated secondary anti-rat IgG, mouse adsorbed (Vector Laboratories, Burlingame, Calif.) in PBSMT at 4° Celsius overnight. On the third day, the embryos were rinsed in PBSMT at 4° Celsius five times (1 hour each) and then incubated in avidin and horse radish conjugated biotin in PBSMT (1:100 dilution) (Vectastatin Elite Standard ABC Kit, Vector Laboratories) overnight at 4° Celsius. On the fourth day embryos were rinsed in PBSMT at 4° Celsius five time (1 hour each) and finally in PBT (0.2% BSA, 0.1% Triton-X100, PBS) for 20 minutes at room temperature. […]

[2] = tested on: non-pregnant cycling mice; test: Cycling mice, chronic treatment: estrous cycle and mating
Source text: Female mice were housed individually in cages and acclimated for one week. The stage of the estrous cycles was checked by visual inspection of the vagina according to the criteria of Champlin^28 and the examiner was blinded to the treatment group. Determining the stage of the estrous cycle in the mouse by the appearance of the vagina. Animals were monitored daily and graded for color, size of opening, striations and swelling. Based on these observations each individual was assigned to a cycle stage (diestrus, proestrus, estrus, or metestrus).
(§1) Mice were randomized and received either AGM-1470 30 mg/kg s.c. or saline 0.1 ml s.c. every other day for 16 days (approximately four estrous cycles). On the last of four days of treatment mice were housed with male mice to see if successful mating and conception would occur. On day 16 mice were weighed and sacrificed by cervical dislocation. The ovaries were resected enbloc, fixed in Carnoy's fixative, and embedded in paraffin according to standard histologic techniques. Sections were cut at 6 microns and stained with hematoxylin and eosin.

corpora lutea = test: Cycling mice, chronic treatment: examination of the ovaries; details: 30 mg/kg every other day for 16 days
Description: as §1

female C57BL/6 mice = test: Single dose on E(-1): implantation sites 6 days after mating; details: single dose 30 mg/kg s.c. on E(-1), sacrificed 6 days after mating
Description: (§2) FIGS. 7A and 7B show the ovaries and uteri from a control mouse or an AGM-treated mouse given a single dose of AGM-1470 on E(−1). Group housed female C57BL/6 mice were treated with a single injection of AGM-1470 (30 mg/kg, s.c.) and paired with male breeders. Mice who mated on the day after treatment were sacrificed 6 days after mating. Ovaries and uteri were removed en bloc, fixed and stained with hemotoxylin and eosin. […] Thin arrows indicate the corpora lutea.
as §2, with “In addition,” for “FIGS. 7A and 7B show”, “from” for “from a”, “and” for “mouse or an AGM-treated mouse given a”, “treatment mice were examined.” for “dose of AGM-1470 on E(−1).”, “lutea.^1 The fat arrows indicate implantation sites in control not seen in treated animal.” for “lutea.”

SMILES: CO[C@@H]1[C@H](OC(=O)NC(=O)CCl)CC[C@]2(CO2)[C@H]1[C@@]1(C)O[C@@H]1CC=C(C)C [AGM-1470, O-chloroacetylcarbamoyl fumagillol]
- toxicity to the pregnant mothers (inseminated C57BL/6 mice; 30 mg/kg single dose): no signs of toxicity
- birth defects (inseminated C57BL/6 mice; drug given to pregnant mice during pregnancy): birth defects were not documented
- fetal resorption on E18 (inseminated C57BL/6 mice; single dose 30 mg/kg s.c. on E1 (pre-implantation), n=69 embryos): 100%
- fetal resorption on E18 (inseminated C57BL/6 mice; single dose 30 mg/kg s.c. on E7 (post-implantation), n=36): 100%
- litters (inseminated C57BL/6 mice; single dose 30 mg/kg s.c. on E14, n=46): normal litters
- CD31 labeled vessels in heart and liver bud [1]: almost a complete loss of CD31 labeled vessels
- capillary density of embryo (CD31) [1]: loss of capillary density; also recorded: diffuse decrease in capillary density
- capillary density of yolk sac (CD31) [1]: decrease in density and intercapillary distance of capillaries; also recorded: decreased capillary density
- first occurrence of abnormal (closed, red, dry) vaginal morphology ([2]; 30 mg/kg s.c. every other day): 5.6±3.2 days of treatment
- mice with new vaginal morphology within 10 days of start of treatment ([2]; 30 mg/kg s.c. every other day): 8 of 8
- effect on estrous cycle ([2]; 30 mg/kg s.c. every other day for 16 days): interruption of the normal estrous cycle
- time to full recovery after drug was discontinued ([2]; chronic high dose, sexually mature cycling mice): 7 weeks
- successful mating (plugging) ([2]; housed with males on last four days of 16 day treatment): no visually evident plugging
- corpora lutea smaller than control (corpora lutea): 61%
- number of corpora lutea (corpora lutea; vs control): fewer; also recorded: decreased size and number of corpora lutea
- implantation sites (female C57BL/6 mice): prevented implantation; also recorded: not seen in AGM-1470 treated animal
